# Test results: ChEMBL document CHEMBL1201862, “PubChem BioAssay data set” (2004)
#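 The compound was tested at five concentrations on cells cultured in 96-well plates, with a 48-hour exposure period. Here, GI50 denotes the concentration required for 50% inhibition of growth.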 The source made the active and inactive calls. Rule as the data show it: active = GI50 up to about 1.1 µM and inactive = higher.
# Assays:
# Experiment in all cases: NCI tumour cell line growth inhibition, 48 h
# 786-0 = system: 786-0
# A498 = system: A498
# A549 = system: A549
# ACHN = system: ACHN
# CAKI-1 = system: CAKI-1
# CCRF-CEM = system: CCRF-CEM
# DU-145 = system: DU-145
# HCC 2998 = system: HCC 2998
# HOP-92 = system: HOP-92
# K562 = system: K562
# MDA-MB-435 = system: MDA-MB-435
# MDA-N = system: MDA-N
# NCI-H460 = system: NCI-H460
# NCI-H522 = system: NCI-H522
# RPMI-8226 = system: RPMI-8226
# RXF 393 = system: RXF 393
# SF-295 = system: SF-295
# SK-OV-3 = system: SK-OV-3
# SNB-75 = system: SNB-75
# TK-10 = system: TK-10
SMILES,GI50 (786-0),GI50 (A498),GI50 (A549),GI50 (ACHN),GI50 (CAKI-1),GI50 (CCRF-CEM),GI50 (DU-145),GI50 (HCC 2998),GI50 (HOP-92),GI50 (K562),GI50 (MDA-MB-435),GI50 (MDA-N),GI50 (NCI-H460),GI50 (NCI-H522),GI50 (RPMI-8226),GI50 (RXF 393),GI50 (SF-295),GI50 (SK-OV-3),GI50 (SNB-75),GI50 (TK-10)
CCNc1nnc(-c2ccccc2Nc2ccccc2-c2nnc(NCC)s2)s1,11 µM (inactive),13.5 µM (inactive),13.5 µM (inactive),7.35 µM (inactive),2.85 µM (inactive),4.18 µM (inactive),4.72 µM (inactive),11.6 µM (inactive),5.92 µM (inactive),37.2 µM (inactive),17.4 µM (inactive),9.73 µM (inactive),5.66 µM (inactive),6.75 µM (inactive),14 µM (inactive),21.6 µM (inactive),16.3 µM (inactive),9.06 µM (inactive),18.2 µM (inactive),11.4 µM (inactive)
COC(=O)[C@]1(c2cc3ccccc3[nH]2)CC2CN(C(=O)OCc3ccccc3)C1CC2=O (stereo not given in full),23.8 µM (inactive),20 µM (inactive),23.3 µM (inactive),26.6 µM (inactive),38.5 µM (inactive),28.2 µM (inactive),38.8 µM (inactive),35 µM (inactive),20.4 µM (inactive),18.7 µM (inactive),30.1 µM (inactive),24.8 µM (inactive),24.4 µM (inactive),20.6 µM (inactive),17.5 µM (inactive),16.2 µM (inactive),25.4 µM (inactive),33.4 µM (inactive),16.5 µM (inactive),53.5 µM (inactive)
Nc1nc(Cl)c(N)c(NCC2(CO)CC2)n1,> 100 µM (inactive),> 100 µM (inactive),> 100 µM (inactive),> 100 µM (inactive),> 100 µM (inactive),> 100 µM (inactive),> 100 µM (inactive),> 100 µM (inactive),> 100 µM (inactive),> 100 µM (inactive),> 100 µM (inactive),> 100 µM (inactive),> 100 µM (inactive),> 100 µM (inactive),> 100 µM (inactive),> 100 µM (inactive),> 100 µM (inactive),> 100 µM (inactive),> 100 µM (inactive),> 100 µM (inactive)
CCCCCCCCCCCCCCCCCCOCC(O)COP(=O)(O)OCC1OC(n2ccc(N)nc2=O)C(O)C1O (stereo not given),10.9 µM (inactive),11 µM (inactive),3.85 µM (inactive),11.3 µM (inactive),23.1 µM (inactive),0.56 µM (active),98.2 µM (inactive),22 µM (inactive),19.9 µM (inactive),28.2 µM (inactive),45.4 µM (inactive),93.8 µM (inactive),3.69 µM (inactive),13.4 µM (inactive),24.9 µM (inactive),12.9 µM (inactive),22.7 µM (inactive),66.8 µM (inactive),13 µM (inactive),14.2 µM (inactive)
O=P1(Oc2ccccc2)N(CCCl)CCN1c1ccccc1 (stereo not given),> 100 µM (inactive),55 µM (inactive),> 100 µM (inactive),> 100 µM (inactive),> 100 µM (inactive),> 100 µM (inactive),> 100 µM (inactive),> 100 µM (inactive),> 100 µM (inactive),> 100 µM (inactive),> 100 µM (inactive),> 100 µM (inactive),> 100 µM (inactive),> 100 µM (inactive),> 100 µM (inactive),58.5 µM (inactive),> 100 µM (inactive),> 100 µM (inactive),34.8 µM (inactive),81.5 µM (inactive)
COc1cc2cc(C(=O)N3CC(COS(C)(=O)=O)c4c3cc([N+](=O)[O-])c3ccccc43)[nH]c2c(OC)c1OC (stereo not given),0.752 µM (active),10.7 µM (inactive),2.81 µM (inactive),0.547 µM (active),0.398 µM (active),0.778 µM (active),0.553 µM (active),0.291 µM (active),> 31.6 µM (inactive),> 100 µM (inactive),> 31.6 µM (inactive),19.5 µM (inactive),0.0986 µM (active),2.99 µM (inactive),2.92 µM (inactive),18.3 µM (inactive),2.37 µM (inactive),61.9 µM (inactive),> 24 µM (inactive),> 31.6 µM (inactive)
